Drawing on PubChem BioAssay AID330 (DTP/NCI, 2004), this text covers T/C for 23 compounds.

In the experiment the test system is P388 leukemia ip, CD2F1 mice, survival T/C. In words: NCI In Vivo Anticancer Drug Screen. Data for tumor model P388 Leukemia (intraperitoneal) in CD2F1 (CDF1) mice. The settings on record: endpoint: median survival time, higher = longer survival. In short, it runs like this: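 Mice carrying the transplanted tumor received test compound or vehicle. Survival was recorded in each group, and the value is the treated-group measurement divided by that of the vehicle-treated control group.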

Setting [1] is: dose: 100.0 mg/kg/injection, schedule: Q04DX003 (ip), vehicle: saline with Tween-80.
The mark [2] stands for this setting: dose: 100.0 mg/kg/injection, schedule: Q01DX001 (ip), vehicle: Klucel (hydroxypropylcellulose) (HPC).
The mark [3] stands for this setting: dose: 200.0 mg/kg/injection, schedule: Q01DX001 (ip), vehicle: Klucel (hydroxypropylcellulose) (HPC).
The mark [4] stands for this setting: dose: 50.0 mg/kg/injection, schedule: Q01DX005 (ip), vehicle: Klucel (hydroxypropylcellulose) (HPC).
Setting [5] is: dose: 100.0 mg/kg/injection, schedule: Q01DX005 (ip), vehicle: Klucel (hydroxypropylcellulose) (HPC).
Where [6] appears, read: dose: 200.0 mg/kg/injection, schedule: Q01DX005 (ip), vehicle: Klucel (hydroxypropylcellulose) (HPC).
[7] abbreviates: dose: 25.0 mg/kg/injection, schedule: Q01DX005 (ip), vehicle: Klucel (hydroxypropylcellulose) (HPC).
[8] abbreviates: dose: 60.0 mg/kg/injection, schedule: Q01DX005 (ip), vehicle: saline with Tween-80.
[9] abbreviates: dose: 120.0 mg/kg/injection, schedule: Q01DX005 (ip), vehicle: saline with Tween-80.
Setting [10] is: dose: 240.0 mg/kg/injection, schedule: Q01DX005 (ip), vehicle: saline with Tween-80.
The mark [11] stands for this setting: dose: 50.0 mg/kg/injection, schedule: Q01DX009 (ip), vehicle: saline.

Each structure is given as a SMILES string. “And” between values parts separate entries of the source, which are not always exact repeats. Identical values can stand only once. Inconclusive results and toxic doses are left out.

`C1CCC2(CC1)SCC1COCN12` (configuration not stated): the T/C was 103 % of control under setting [1]; 97 % of control (dose: 200.0 mg/kg/injection, schedule: Q04DX003 (ip), vehicle: saline with Tween-80); 103 % of control (dose: 400.0 mg/kg/injection, schedule: Q04DX003 (ip), vehicle: saline with Tween-80).

Take `Cc1ccc(S(=O)(=O)N/N=C\c2c(-c3ccc(Cl)cc3)nc3sccn23)cc1`: the T/C runs as follows: under setting [2], 93 % of control; under setting [3], 94 % of control.

For `OC1CC2c3ccccc3C1c1ccccc12` (configuration not stated), the T/C is 95 % of control under setting [4], 99 % of control under setting [5] and 100 % of control under setting [6].

`COc1ccc(/C=C/C(=O)c2ccccc(=O)c2O)c(OC)c1`: the T/C reads like this: under setting [7], 101 % of control; under setting [4], 98 % of control; under setting [5], 105 % of control; under setting [6], 104 % of control.

For the compound `Cc1nc2c(cc1C#N)C(Nc1ccc(Cl)cc1)Oc1ccc([N+](=O)[O-])cc1-2` (configuration not stated), the T/C reads like this: under setting [8], 92 % of control; under setting [9], 92 % of control; under setting [10], 90 % of control.

Turning to `O=C(c1cc(F)ccc1Nc1ccccc1)N1CCOCC1`, the T/C (dose: 12.5 mg/kg/injection, schedule: Q01DX009 (ip), vehicle: saline) was 98 % of control; the T/C (dose: 25.0 mg/kg/injection, schedule: Q01DX009 (ip), vehicle: saline) is 100 % of control; the T/C under setting [11] was 98 % of control and 109 % of control.

With `CN1CCc2cc3c(cc2C(=O)Cc2ccc4c(c2C1)OCO4)OCO3`, the T/C is, setting by setting: (dose: 25.0 mg/kg/injection, schedule: Q04DX003 (ip), vehicle: saline with Tween-80) 95 % of control; (dose: 50.0 mg/kg/injection, schedule: Q04DX003 (ip), vehicle: saline with Tween-80) 90 % of control; under setting [1], 90 % of control.

`CCCNC(=O)OCc1c(COC(=O)NCCC)c(-c2ccc(Cl)c(Cl)c2)n2c1CCC2`: the T/C reads like this: (dose: 12.5 mg/kg/injection, schedule: Q01DX009 (ip), vehicle: distilled water + Tween-80) 120 % of control; (dose: 20.0 mg/kg/injection, schedule: Q01DX009 (ip), vehicle: distilled water + Tween-80) 154 % of control; (dose: 40.0 mg/kg/injection, schedule: Q01DX009 (ip), vehicle: distilled water + Tween-80) 154 % of control and 172 % of control; (dose: 50.0 mg/kg/injection, schedule: Q01DX009 (ip), vehicle: distilled water + Tween-80) 166 % of control; (dose: 80.0 mg/kg/injection, schedule: Q01DX009 (ip), vehicle: distilled water + Tween-80) 102 % of control and 91 % of control; (dose: 100.0 mg/kg/injection, schedule: Q01DX009 (ip), vehicle: distilled water + Tween-80) 95 % of control.

`CC(C)Cc1cc(-c2cc(CC(C)C)[nH]n2)n[nH]1`: the T/C under setting [8] was 106 % of control, the T/C under setting [9] is 95 % of control and the T/C under setting [10] is 100 % of control.

With `COc1cccc2c(NCCCCCCCCNc3c4ccc([N+](=O)[O-])cc4nc4c(OC)cccc34)c3ccc([N+](=O)[O-])cc3nc12`, the T/C is, setting by setting: (dose: 2.5 mg/kg/injection, schedule: Q01DX009 (ip), vehicle: other) 157 % of control; (dose: 5.0 mg/kg/injection, schedule: Q01DX009 (ip), vehicle: other) 152 % of control; (dose: 10.0 mg/kg/injection, schedule: Q01DX009 (ip), vehicle: other) 158 % of control and 172 % of control; (dose: 20.0 mg/kg/injection, schedule: Q01DX009 (ip), vehicle: other) 170 % of control; (dose: 40.0 mg/kg/injection, schedule: Q01DX009 (ip), vehicle: other) 166 % of control.

As for `CSCCC(NC(=O)C(Cc1ccccc1)NC(=O)CNC(=O)CNC(=O)C(N)Cc1ccc(O)cc1)C(=O)O` (configuration not stated), the T/C (dose: 50.0 mg/kg/injection, schedule: Q01DX005 (ip), vehicle: saline with Tween-80) was 101 % of control; the T/C (dose: 100.0 mg/kg/injection, schedule: Q01DX005 (ip), vehicle: saline with Tween-80) was 92 % of control; the T/C (dose: 200.0 mg/kg/injection, schedule: Q01DX005 (ip), vehicle: saline with Tween-80) is 92 % of control.

As to `[CH3][Sb]([CH3])[O][Sb]([CH3])[CH3]`, the T/C (dose: 60.0 mg/kg/injection, schedule: Q01DX005 (ip), vehicle: saline) was 110 % of control; the T/C (dose: 120.0 mg/kg/injection, schedule: Q01DX005 (ip), vehicle: saline) is 111 % of control; the T/C (dose: 240.0 mg/kg/injection, schedule: Q01DX005 (ip), vehicle: saline) was 107 % of control.

On to `CC1CN2CC(C)O[Si](CCCCCC[Si]34OC(C)CN(CC(C)O3)CC(C)O4)(O1)OC(C)C2` (configuration not stated), for which the T/C is, setting by setting: under setting [4], 108 % of control; under setting [5], 97 % of control; under setting [6], 97 % of control.

With `CN1C(NC(=O)C(C)(C)O)C(C)(C)C(C)(C)C1NC(=O)C(C)(C)O` (configuration not stated), the T/C was 121 % of control (dose: 30.0 mg/kg/injection, schedule: Q01DX005 (ip), vehicle: saline with Tween-80); 123 % of control under setting [8]; 151 % of control under setting [9]; 123 % of control under setting [10].

In the case of `CN1c2ccccc2C(C)(C)C12C=Cc1cc(O)ccc1O2` (configuration not stated), the T/C is 93 % of control under setting [11]; 96 % of control (dose: 100.0 mg/kg/injection, schedule: Q01DX009 (ip), vehicle: saline); 113 % of control (dose: 200.0 mg/kg/injection, schedule: Q01DX009 (ip), vehicle: saline).

Consider `NN1C(=O)c2cccc3cccc(c23)C1=O`, for which the T/C runs as follows: (dose: 3.13 mg/kg/injection, schedule: Q01DX009 (ip), vehicle: saline with Tween-80) 105 % of control; (dose: 6.25 mg/kg/injection, schedule: Q01DX009 (ip), vehicle: saline with Tween-80) 100 % of control; (dose: 12.5 mg/kg/injection, schedule: Q01DX009 (ip), vehicle: saline with Tween-80) 100 % of control; (dose: 25.0 mg/kg/injection, schedule: Q01DX009 (ip), vehicle: saline with Tween-80) 105 % of control.

With `O=C(Cc1ccccc1)OCC1=CCN2CC[C@@H](O)[C@@H]12`, the T/C is, setting by setting: (dose: 15.0 mg/kg/injection, schedule: Q01DX009 (ip), vehicle: saline + alcohol) 97 % of control; (dose: 30.0 mg/kg/injection, schedule: Q01DX009 (ip), vehicle: saline + alcohol) 99 % of control; (dose: 60.0 mg/kg/injection, schedule: Q01DX009 (ip), vehicle: saline + alcohol) 97 % of control; (dose: 120.0 mg/kg/injection, schedule: Q01DX009 (ip), vehicle: saline + alcohol) 109 % of control; (dose: 240.0 mg/kg/injection, schedule: Q01DX009 (ip), vehicle: saline + alcohol) 105 % of control; (dose: 480.0 mg/kg/injection, schedule: Q01DX009 (ip), vehicle: saline + alcohol) 116 % of control.

Consider `CCOC(=O)CC(COC)C(Br)(C(=O)OCC)C(=O)OCC` (configuration not stated), for which the T/C runs as follows: (dose: 1.56 mg/kg/injection, schedule: Q01DX009 (ip), vehicle: water) 104 % of control; (dose: 3.13 mg/kg/injection, schedule: Q01DX009 (ip), vehicle: water) 111 % of control; (dose: 6.25 mg/kg/injection, schedule: Q01DX009 (ip), vehicle: water) 107 % of control; (dose: 12.5 mg/kg/injection, schedule: Q01DX009 (ip), vehicle: water) 114 % of control; (dose: 25.0 mg/kg/injection, schedule: Q01DX009 (ip), vehicle: water) 113 % of control.

Turning to `CCOC(=O)NC(C)CC(C)NC(=O)OCC` (configuration not stated), the T/C is 94 % of control (dose: 50.0 mg/kg/injection, schedule: Q01DX001 (ip), vehicle: Klucel (hydroxypropylcellulose) (HPC)); 92 % of control under setting [2]; 93 % of control under setting [3].

As for `COc1ccc(S(=O)c2coc3ccccc3c2=O)cc1` (configuration not stated), the T/C runs as follows: under setting [8], 99 % of control; under setting [9], 100 % of control; under setting [10], 100 % of control.

For `CC(=O)/C=C1\N(C)c2ccccc2C1(C)C`, the T/C was 104 % of control under setting [4], 107 % of control under setting [5] and 100 % of control under setting [6].

For `O=NN(c1ccccc1)c1ccccc1`, the T/C reads like this: (dose: 50.0 mg/kg/injection, schedule: Q01DX009 (ip), vehicle: saline with Tween-80) 101 % of control; (dose: 100.0 mg/kg/injection, schedule: Q01DX009 (ip), vehicle: saline with Tween-80) 100 % of control; (dose: 200.0 mg/kg/injection, schedule: Q01DX009 (ip), vehicle: saline with Tween-80) 98 % of control.

As for `COC(=O)c1cccc2c1Oc1ccccc1S2`, the T/C is 102 % of control under setting [7], 103 % of control under setting [4], 102 % of control under setting [5] and 100 % of control under setting [6].
